Results taken from patent US5444042A, “Method of treatment of neurodegeneration with calpain inhibitors” (Cortex Pharmaceuticals, priority 1994, dated 1995).
Where a SMILES comes first, the peptide text is derived from it. The star is where a group is joined. Boc = CC(C)(C)OC(=O)*; CH2Cl = ClC*

How the values were obtained:
[1] = target: T1, Calpain I from human erythrocytes (Homo sapiens, UniProt P07384); test: Calpain I inhibition, Suc-Leu-Tyr-AMC (Table PKC1); assay type: biochemical; conditions: 20 mM Hepes, 10 mM CaCl2, 10 mM β-mercaptoethanol, pH 7.2; read-out: Ki CI (Calpain I)
T1 construct: Calpain I from human erythrocytes and calpain II from rabbit were assayed using Suc-Leu-Tyr-AMC; from tissue; host or cells: human erythrocytes
T1 sequence (P07384 1-714): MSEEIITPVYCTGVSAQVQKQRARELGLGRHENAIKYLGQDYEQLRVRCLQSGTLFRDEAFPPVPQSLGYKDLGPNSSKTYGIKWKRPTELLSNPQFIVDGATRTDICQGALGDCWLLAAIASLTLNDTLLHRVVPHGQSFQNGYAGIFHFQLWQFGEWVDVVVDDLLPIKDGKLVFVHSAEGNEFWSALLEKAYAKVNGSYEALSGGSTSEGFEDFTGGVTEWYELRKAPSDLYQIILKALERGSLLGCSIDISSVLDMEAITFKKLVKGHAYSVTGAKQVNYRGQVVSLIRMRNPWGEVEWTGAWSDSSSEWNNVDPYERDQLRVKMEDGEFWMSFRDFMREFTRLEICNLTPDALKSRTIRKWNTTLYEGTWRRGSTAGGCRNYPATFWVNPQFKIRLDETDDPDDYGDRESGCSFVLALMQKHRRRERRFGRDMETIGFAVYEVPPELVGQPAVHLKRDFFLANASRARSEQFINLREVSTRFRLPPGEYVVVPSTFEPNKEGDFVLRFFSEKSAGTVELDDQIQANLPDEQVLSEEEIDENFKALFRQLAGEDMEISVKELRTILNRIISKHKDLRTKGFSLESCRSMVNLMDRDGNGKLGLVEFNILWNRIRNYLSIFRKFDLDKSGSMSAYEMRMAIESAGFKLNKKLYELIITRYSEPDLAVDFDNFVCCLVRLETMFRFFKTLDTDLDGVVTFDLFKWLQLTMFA
T1 sequence (P04632 1-268 partner): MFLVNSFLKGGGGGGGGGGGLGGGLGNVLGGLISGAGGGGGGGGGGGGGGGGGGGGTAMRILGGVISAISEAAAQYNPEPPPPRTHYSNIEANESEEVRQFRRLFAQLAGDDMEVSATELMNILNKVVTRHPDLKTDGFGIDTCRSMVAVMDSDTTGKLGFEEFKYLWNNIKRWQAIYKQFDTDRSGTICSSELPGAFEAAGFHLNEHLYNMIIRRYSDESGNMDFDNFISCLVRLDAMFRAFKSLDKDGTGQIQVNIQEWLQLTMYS
Experimental: Our discovery of Peptide Keto-Compounds effective as Calpain Inhibitors was made through assay of the Peptide Keto-Compounds as reversible inhibitors. Various concentrations of inhibitors in dimethylsulfoxide (DMSO) were added to the assay mixture, which contained buffer and substrate. The reaction was started by the addition of the enzyme and the hydrolysis rates were followed spectrophotometrically or fluorimetrically. 88 mM KH2 PO4, 12 mM Na2 HPO4, 1.33 mM EDTA, 2.7 mM cysteine, pH 6.0 was used as a buffer for cathepsin B; and 20 mM Hepes, 10 mM CaCl2, 10 mM β-mercaptoethanol, pH 7.2 buffer was utilized for calpain I and calpain II.
All peptide thioester hydrolysis rates were measured with assay mixtures containing 4,4'-dithiodipyridine [e324=19800 M-1 cm-1; Grasetti & Murray, Arch. Biochem. Biophys. 119, pp 41-49 (1967)]. Papain was assayed with Bz-Arg-AMC or Bz-Arg-NA [Kanaoka et al., Chem. Pharm. Bull. 25, 3126-3128 (1977)], and the AMC (7-amino-4-methylcoumarin) release was followed fluorimetrically (excitation at 380 nm, and emission at 460 nm). Cathepsin B was assayed with Z-Arg-Arg-AFC [Barrett and Kirschke, Methods Enzymol. 80, 535-561 (1981)], and the AFC (7-amino-4-trifluoromethylcoumarin) release was followed fluorimetrically (excitation at 400 nm, and emission at 505 nm). Calpain I from human erythrocytes and calpain II from rabbit were assayed using Suc-Leu-Tyr-AMC [Sasaki et al., J. Biol. Chem. 259, 12489-12494 (1984), hereby incorporated by reference], and the AMC (7-amino-4-methylcoumarin) release was followed fluorimetrically (excitation at 380 nm, and emission at 460 nm). Enzymatic hydrolysis rates were measured at various substrate and inhibitor concentrations, and Ki values were determined by Dixon plot.

[2] = target: T2, Cathepsin B from bovine spleen (Bos taurus, UniProt P07688); test: Cathepsin B Ki (Table 1B(i)); assay type: biochemical; conditions: substrate Z-Lys-4-nitrophenylphosphate
T2 construct: Cathepsin B from bovine spleen was assayed using Z-Lys-4-nitrophenylphosphate as substrate; from tissue; host or cells: bovine spleen
Experimental: The Peptide Keto-Compounds are reversible inhibitors of Calpains and other thiol proteases. […] Cathepsin B from bovine spleen was assayed using Z-Lys-4-nitrophenylphosphate as substrate.
The Ki value for the inhibition of Calpains and cathepsin B by several Peptide Keto-Compounds are shown in μM (micromolar). The values for leupeptin, which is commercially available from Calbiochem of La Jolla, Calif., are shown for comparison.

[3] = tested on: hippocampal slices; test: Hippocampal slice evoked potential recovery after anoxia (Example 7B); assay type: cell-based, rat
Experimental: As in Example 7A, hippocampal slices (400 μm) were prepared from Sprague Dawley rats (6-7 weeks) and maintained in an interface chamber at 35° C. using conventional techniques, i.e. the lower surface of the slice received a constant perfusion (0.5 ml/min) of an artificial cerebrospinal fluid (ACSF), while the upper surface was exposed to a moist atmosphere of O2 :CO2 (95%:5%) exchanged at a rate of 2 L/min. The ACSF medium contains (in mM): NaCl (124), KCl (3), KHPO4 (1.25), MgSO4 (2.5), CaCl2 (3.4), NaHCO3 (26) and D-Glucose (10). Field excitatory post-synaptic responses were recorded from stratum radiatum of CA1b in response to stimulation of Schaffer-commissural fibers in CA1a or CA1c. The depth of the recording electrode was optimized and evoked responses were collected at a rate of one evoked response every 30 seconds.
After establishing a stable baseline of evoked responses (approximately 10 minutes), ACSF containing Calpain Inhibitor was washed into the chamber and slices were incubated for a period of one hour. After incubation, evoked responses were again recorded and the change in the amplitude of the responses from baseline levels was noted. No effect of the inhibitors tested on baseline evoked responses was observed.
For anoxia experiments, incubation in the drug-containing medium was followed by replacement of the O2 :CO2 (95%:5%) atmosphere with N2 :CO2 (95%:5%). Slices were exposed to this anoxic environment until disappearance of the pre-synaptic fiber volley and for two minutes (severe anoxia) longer (total time in anoxic environment approximately 7-8 minutes in control case). Effects of Calpain Inhibitors on the functional recovery of the slices after the anoxic episode were then measured. Recovery of the evoked potential (EPSP) slope and amplitude by the drug treated slices can be compared to control slices to determine the relative efficacy of various Calpain Inhibitors.

[4] = Stability in plasma; assay type: in vitro ADME; conditions: unit assumed
Description: We determined the haft-life of several Peptide Keto-Compounds in both plasma and liver homogenates.

[5] = Concentration 100, ten minutes anoxia

| Compound | Ki [1] [µM] | Ki [2] [µM] | t1/2 plasma [4] [min] | other results |
| --- | --- | --- | --- | --- |
| CCC(NC(=O)[C@@H]1CCCN1C(=O)[C@H](C)NC(=O)[C@H](C)NC(=O)CCC(=O)OC)C(=O)C(=O)OC (mixture of isomers) [MeO-Suc-Ala-Ala-Pro-Abu-COOMe, MeO-Suc-Ala-Ala-Pro-DL-Abu-CO2 Me] | 100 |  |  |  |
| CCOC(=O)C(=O)C(CC)NC(=O)[C@H](C)NC(=O)[C@H](C)NC(=O)OCc1ccccc1 (mixture of isomers) [Z-Ala-Ala-DL-Abu-COOEt, Z-Ala-Ala-DL-Abu-CO2 Et] | 50 |  |  |  |
| CCOC(=O)C(=O)[C@H](CC)NC(=O)[C@H](CC(C)C)NC(=O)OCc1ccccc1 (racemic) [Z-Leu-Abu-COOEt, Z-Leu-DL-Abu-COOEt] | 0.04 | 14 | 2.8 | % Recovery of synaptic transmission after anoxia [3, 5]: 55%; recovery of EPSP amplitude from severe anoxia (FIG. 4) ([3]; severe anoxia, 2 minutes post fiber volley disappearance): superior to that seen with CI1 |
| CCCC(NC(=O)[C@H](CC(C)C)NC(=O)OCc1ccccc1)C(=O)C(=O)OCC (mixture of isomers) [Z-Leu-Nva-COOEt, Z-Leu-DL-Nva-COOEt] |  | 30 | 2.8 |  |
| CC(C)CC(NC(=O)CNC(=O)OC(C)(C)C)C(=O)NC(Cc1ccccc1)C(=O)CCl (stereo not drawn) [Boc-Gly-Leu-Phe-CH2 Cl] (Boc-Gly-Leu-Phe-CH2Cl; configuration not given here) |  |  |  | % Recovery of synaptic transmission after anoxia ([3]; Concentration 50, ten minutes anoxia): 30% |
| CC(=O)N[C@@H](CC(C)C)C(=O)N[C@@H](CC(C)C)C(=O)N[C@H](C=O)CCCNC(=N)N [Leupeptin, Ac-Leu-Leu-Arg-H, reference compound] |  | 6 |  |  |
| N=C(N)SCCCOc1oc(=O)c2cc(N)ccc2c1Cl [NH2 -CiTPrOIC (ACITIC), 7-amino-4-chloro-3-(3-isothiureidopropoxy)isocoumarin] |  |  |  | % Recovery of synaptic transmission after anoxia ([3]; Concentration 20, ten minutes anoxia): 60% |
| CCCCC(NC(=O)C(CC(C)C)NC(=O)OCc1ccccc1)C(=O)C(=O)OCC (stereo not drawn) [Z-Leu-Nle-COOEt, Z-Leu-NLeu-CO2 Et] | 0.12 | 18 | 3.7 |  |
| CCOC(=O)C(=O)C(Cc1ccccc1)NC(=O)C(CC(C)C)NC(=O)OCc1ccccc1 (stereo not drawn) [Z-Leu-Phe-COOEt] | 0.23 | > 50 | 7.8 | % Recovery of synaptic transmission after anoxia [3, 5]: 38%; period of anoxia required to produce fiber volley disappearance (FIG. 6) ([3]; hippocampal slices): substantially lengthens the period of exposure to anoxia required to produce FVD |
